The test system of test [1] is PBP2. The conditions noted are these: 2 mM EDTA.
For test [2], the target named is PBP2WT (Clostridioides difficile, UniProt A0A9R0CDX1). Kind of test: biochemical. Type of test: binding.
The target of test [3] is T1, PBP2D515N (Clostridioides difficile, UniProt A0A9R0CDX1, D515N).
T1 sequence (A0A9R0CDX1 36-962 D515N): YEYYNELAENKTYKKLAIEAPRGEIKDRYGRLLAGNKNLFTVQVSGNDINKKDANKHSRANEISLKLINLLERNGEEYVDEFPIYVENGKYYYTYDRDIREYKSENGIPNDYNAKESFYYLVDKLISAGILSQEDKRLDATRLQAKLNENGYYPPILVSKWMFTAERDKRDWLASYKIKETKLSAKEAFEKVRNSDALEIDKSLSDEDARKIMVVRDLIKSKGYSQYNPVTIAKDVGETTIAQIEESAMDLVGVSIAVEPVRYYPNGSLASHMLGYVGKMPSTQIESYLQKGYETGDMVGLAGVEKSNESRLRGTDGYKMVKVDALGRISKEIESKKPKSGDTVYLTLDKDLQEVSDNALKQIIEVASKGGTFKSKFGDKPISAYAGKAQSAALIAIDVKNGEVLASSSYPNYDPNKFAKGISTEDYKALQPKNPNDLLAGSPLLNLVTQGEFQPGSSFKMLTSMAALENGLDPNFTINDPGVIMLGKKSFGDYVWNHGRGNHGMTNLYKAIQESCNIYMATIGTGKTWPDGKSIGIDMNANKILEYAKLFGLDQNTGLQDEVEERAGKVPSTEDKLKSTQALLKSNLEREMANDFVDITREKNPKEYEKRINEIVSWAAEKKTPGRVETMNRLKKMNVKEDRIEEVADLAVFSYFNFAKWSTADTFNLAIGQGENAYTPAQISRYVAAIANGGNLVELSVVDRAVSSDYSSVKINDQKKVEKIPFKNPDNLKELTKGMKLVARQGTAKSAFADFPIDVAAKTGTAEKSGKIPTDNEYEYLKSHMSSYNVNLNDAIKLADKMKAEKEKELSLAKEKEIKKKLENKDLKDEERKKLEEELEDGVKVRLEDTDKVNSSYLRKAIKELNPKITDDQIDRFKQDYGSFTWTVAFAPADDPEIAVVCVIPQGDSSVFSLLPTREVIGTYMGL
Kind of test: biochemical. Type of test: binding.

Test [4] deals with C. difficile. Also on record: method as in PMID 29533126. Conditions: cited from earlier work.

Regarding `O=C(O)CN(CCN(CC(=O)O)CC(=O)O)CC(=O)O` [EDTA], the PBP2 activity result in test [1] is “not affected”. For the molecule `Cc1cc(C)n2c1C=C1C=CC(CCC(=O)Nc3ccc(OCC(=O)N[C@@H]4C(=O)N5[C@@H]4SC(C)(C)[C@@H]5C(=O)O)cc3)=[N+]1[B-]2(F)F` [bocillin], the dissociation constant Kd (as a rule, a measure of binding affinity in units of concentration) in test [2] was determined as 2.95 ± 0.72 µM; in test [3] it was 16.7 ± 2.72 µM.

B1: calprotectin: a protein secreted by the immune system in response to intestinal inflammation; chelator of divalent cations such as Ca2+ and Zn2+ (protein, UniProt P05109 1-93; P06702 1-114, looked up)
Protein S100-A8: MLTELEKALNSIIDVYHKYSLIKGNFHAVYRDDLKKLLETECPQYIRKKGADVWFKELDINTDGAVNFQEFLILVIKMGVAAHKKSHEESHKE
Protein S100-A9: MTCKMSQLERNIETIINTFHQYSVKLGHPDTLNQGEFKELVRKDLQNFLKKENKNEKVIEHIMEDLDTNADKQLSFEEFIMLMARLTWASHEKMHEGDEGPGHHHKPGLGEGTP
As to B1, in test [4], the “C. difficile growth (in words)” value was “inhibits C. difficile growth”.

The record behind these values is paper PMC9334274, “A unique class of Zn^2+-binding serine-based PBPs underlies cephalosporin resistance and sporogenesis in Clostridioides difficile” (Nature Communications, 2022).
